Data as given in patent US5212158A, “Derivatives of L-proline, their preparation and their biological uses” (Inorgan SA Recherche & Developpement Pharmaceutiques, CAS, priority 1987, dated 1993).
Residues, ends and D or L forms follow the SMILES beside them. *: point of attachment. PhAc = O=C(Cc1ccccc1)*; Bz = O=C(c1ccccc1)*

Assays:
mouse = assay: Test of passive avoidance: amnesia induced by scopolamine; assay type: in vivo; conditions: for activity in the scopolamine amnesia test: at 2, 8 and 32 mg/kg; for activity in the scopolamine amnesia test / dose at which activity is significant / active dose, scopolamine amnesia test: oral administration; for dose with significant/antagonistic effect on scopolamine amnesia: i.p. route 60 minutes before Assay 1
Procedure: The procedure described by Glick and Zimmerberg in Behavioural Biology, 1972, 7: 245-254 and by Lenegre et al in Pharmacol. Biochem. Behav., 29 (3) 1988 were used.
The mouse is introduced into the illuminated compartment of a two-compartment box. When it crosses into the darker component its paws receive electric shocks of 0.3 mA until it returns into the illuminated compartment (Assay 1).
When the mouse is returned to the box 24 hours later (Assay 2), it avoids going into the darker component. An i.p. injection of scopolamine (1 mg.kg^-1) 30 minutes before Assay 1 reduces the memory of this experience as is reflected in the delay of the reaction of the mouse before it crosses to the darker compartment in Assay 2. […]
Piracetam was used as reference substance.

TSH = assay: Effect on adenohypophyseal hormone secretions: TSH radioimmunoassay; assay type: in vivo, rat; conditions: male rats, plasma 30 min later; for activity on TSH levels: 32 mg/kg IP
Procedure: (§1) Male rats received 2 mg/kg, 8 mg/kg, or 32 mg/kg IP of product of example 1 in arabic gum (2.5%) and 32 mg/kg IP of products of examples 2 and 3. Rats were killed 30 min. later by decapitation and plasma samples were aliquoted and kept frozen (-20° C.) until assays. Before the experiments, the rats have been accustomed to handling to avoid any stress effect.
(§2) Hormones were assayed using radioimmunoassays for prolactin, GH and TSH.

GH = assay: Effect on adenohypophyseal hormone secretions: GH radioimmunoassay; assay type: in vivo, rat; conditions: male rats; 32 mg/kg IP; plasma 30 min later
Procedure: as §1, §2

prolactin = assay: Effect on adenohypophyseal hormone secretions: prolactin radioimmunoassay; assay type: in vivo, rat; conditions: male rats, plasma 30 min later; for activity on prolactin levels: 32 mg/kg IP
Procedure: as §1, §2

mice of the NMRI strain [1] = assay: Test of passive avoidance: amnesia induced by diazepam; assay type: in vivo, mouse; conditions: for dose with statistically significant effect / dose reducing diazepam amnesia: 60 minutes before Assay 1, piracetam by the i.p. route
Procedure: A volume of 0.25 ml/20 g of body weight of the compound of Example 1 (suspension in 5% gum arabic) is administered to mice of the NMRI strain or, in the case of the reference substance, an aqueous solution of piracetam or of diazepam (5% suspension in gum arabic) is administered. The control animals receive only injections of the vehicle (suspension of gum arabic). The test is carried out at indicated above for the induction of amnesia by the injection of scopolamine, with exception that this latter is replaced by diazepam. An injection of diazepam by the i.p. route 30 minutes before Assay 1 at a dose of 1 mg.kg^-1 reduces memory in a significant manner as is shown by the diminution of the reaction time in the mouse for crossing to the dark compartment during Assay 2.

[2] = Solubility of the product obtained; assay type: physicochemical
Description: The product obtained was insoluble in water and is soluble to the extent of at least 1% to 5% in organic solvents such as methanol. chloroform, ethyl acetate and dimethylformamide.

NMRI mice = assay: Potentiation of the effects of L-dopa; assay type: in vivo, mouse; conditions: oral 8 and 32 mg/kg one hour before L-dopa 150 mg/kg i.p.
Procedure: A compound of the invention is adiministered orally at doses of 2, 8 and 32 mg/kg to NMRI mice one hour before the intraperitoneal administration of 150 mg/kg of L-dopa.

[3] = system: male mice of the NMRI strain; assay: Irwin test; assay type: in vivo, mouse
Procedure: A volume of 0.25 ml/20 g of body weight of a suspension of the compound of the invention in 5% gum arabic is administered to male mice of the NMRI strain by the i.p. route. The control animals received only the 5% suspension of gum arabic. Changes in behaviour, neurotoxicity symptoms, the diameter of the pupil and the rectal temperature are recorded in the standardized observation schedule according to Irwin in Psychopharmacologia, 1968, 13, 222-257. These observations were made at 15, 30, 60, 120 and 180 minutes after injection and 24 hours later. The compounds of the invention were studied at doses of 1024, 512 and 256 mg.kg^-1.

mice of the NMRI strain [4] = assay: Antagonism of sleep induced by barbiturates; assay type: in vivo, mouse; conditions: oral 2 and 8 mg/kg one hour before barbital 50 mg/kg i.p.; compared with a control group
Procedure: A compound of the invention is administered orally at doses of 2, 8 and 32 mg.kg^-1 to mice of the NMRI strain one hour before the intraperitoneal administration of barbital at a dose of 50 mg/kg.

[5] = i.p. 1024 mg.kg^-1, between 1 and 2 hours after administration

Row | Molecule | activity in the scopolamine amnesia test (mouse) | dose at which activity is significant / active dose, scopolamine amnesia test (mouse) [mg/kg] | activity on TSH levels (TSH) | activity on GH levels (GH) | activity on prolactin levels (prolactin) | dose with statistically significant effect / dose reducing diazepam amnesia (mice of the NMRI strain [1]) [mg/kg] | dose with significant/antagonistic effect on scopolamine amnesia (mouse) [mg/kg] | also measured
1 | NC(=O)[C@@H]1CCCN1C(=O)[C@H](Cc1ccccc1)NC(=O)CNC(=O)c1ccccc1 [Example 6, benzoyl-glycyl-L-phenylalanyl-L-prolinamide] (Bz-Gly-Phe-Pro-NH2) | active | 2 | – | – | – | – | – | –
2 | 4-fluorocinnamoylglycyl-L-phenylalanine-L-prolinamide [Example 2] | active | 2 | no activity at all | no activity at all | no activity at all | – | – | –
3 | NC(=O)CN1CCCC1=O [piracetam, reference compound] | – | 2048 | – | – | – | 512 | 512 | latent periods for crossing into the dark compartment or for escaping from it during Assay 1 (mouse; i.p. or oral route 60 mn before the assay, Assay 1): does not produce any effect
4 | NC(=O)[C@@H]1CCCN1C(=O)[C@H](Cc1ccccc1)NC(=O)CNC(=O)C=Cc1ccc2c(c1)OCO2 [Example 3, 3,4-methylenedioxycinnamoyl-glycyl-L-phenylalanyl-L-prolinamide] | active | 2 | no activity at all | no activity at all | no activity at all | – | – | –
5 | NC(=O)[C@@H]1CCCN1C(=O)[C@H](Cc1ccccc1)NC(=O)CNC(=O)C=Cc1ccccc1 [Example 1, cinnamoyl-glycyl-L-phenylalanyl-L-prolinamide] | active | 2 | – | – | – | 4 | 1 | TSH levels (TSH; 8 mg/kg IP): very slightly increased; antagonism of the effect of diazepam (Assay 2) (mice of the NMRI strain [1]; doses of 0.25, l and 4 mg.kg^-1, 60 minutes before Assay 1, diazepam 1 mg.kg^-1 i.p.): antagonizes the effect of diazepam in a dose-dependent manner; solubility in water [2]: insoluble; behavioural changes with L-dopa (NMRI mice): induces behavioural changes in the treated animals such as rapid running and jumping; Irwin observations versus control animals ([3]; i.p. 256 mg.kg^-1): no difference from the control animals; Irwin observations (hypothermia) ([3]; i.p. 512 mg.kg^-1): only a slight hypothermia; hypothermia ([3]; i.p. 1024 mg.kg^-1): hypothermia (2 mice/3); ptosis ([3]; i.p. 1024 mg.kg^-1): moderate ptosis (3 mice/3); excitation [3, 5]: excitation (1 mouse/3); sedation [3, 5]: slight sedation (1 mouse/3); antagonism of the effects of scopolamine (Assay 2) (mouse; i.p. 60 minutes before Assay 1, doses of 1, 4 and 16 mg/kg): antagonizes the effects of scopolamine; duration of sleep (mice of the NMRI strain [4]): significantly diminishes the duration of sleep; prolactin levels (prolactin; 2, 8 or 32 mg/kg IP, dose dependent): slightly increased
6 | NC(=O)[C@@H]1CCCN1C(=O)[C@H](Cc1ccccc1)NC(=O)CNC(=O)Cc1ccccc1 [Example 7, phenylacetyl-glycyl-L-phenylalanyl-L-prolinamide] (PhAc-Gly-Phe-Pro-NH2) | active | 2 | – | – | – | – | – | –
